Experimental data published in PMC10488193, “Evaluation of the Chemical Stability, Membrane Permeability and Antiproliferative Activity of Cyclic Diarylheptanoids from European Hornbeam (Carpinus betulus L.)” (International Journal of Molecular Sciences, 2023).
Entries after “also recorded” stand apart in the source; their conditions may differ. Marks after values point to notes of the source that are not given here.

Legend:
[1] = Storage stability in solutions and hornbeam bark extracts (UHPLC-DAD); type: physicochemical
Method: For the analysis of the samples from the chemical stability as well as the PAMPA studies, sample concentrations were determined using our previously developed ultrahigh-performance liquid chromatography–diode array detection (UHPLC-DAD) method validated for linearity, precision and accuracy. Briefly, an ACQUITY UPLC H-Class PLUS System hyphenated with a quaternary solvent delivery pump (QSM), an auto-sampler manager (FTN), a column compartment (CM) and a photodiode array (PDA) detector (Waters Corporation) was employed. Stationary phase: Acquity BEH C18 column (100 × 2.1 mm i.d., 1.7 µm; Waters Corporation), column temperature: 30 °C. The mobile phase consisted of 0.3% acetic acid in water (eluent A) and acetonitrile (eluent B). The following gradient elution was applied at a flow rate of 0.3 mL/min: 0 min 12.0% B, 19.0 min 13.5% B, 25.5 min 75.0% B, 26.0 min 100.0% B, 28.0 min 100.0% B, 28.5 min 12.0% B.
We used the following equations to calculate the first-order reaction rate constant (k) and the half-life (t1/2) indicating the time required to reduce the concentration of diarylheptanoids by 50% [29]:ln (ct/c0) = −k × t(1) t1/2 = −ln 0.5 × k^−1(2) where ct is the concentration of the diarylheptanoids at time t, c0 is the initial concentration, k is the reaction rate constant, t is the treatment time.
The chemical stability of the isolated compounds in solutions was examined at a concentration of 50 µg/mL in methanol and water (in the latter case using methanol as co-solvent, final composition: water-methanol 90:10, v/v). Furthermore, the methanol and ethyl acetate extracts of C. betulus bark (concentration 4 mg/mL) were also studied in order to assess the effects of the accompanying substances. The storage stability studies were performed at a neutral pH value. All solutions were filtered through Phenex-RC 15 mm, 0.2 μm syringe filters (Gen-Lab Ltd., Budapest, Hungary). The samples were prepared in triplicate and stored protected from light at 22 ± 2.0 °C, 5 ± 1.5 °C and −15 ± 2.0 °C for 23 weeks. Quantities of the analytes of interest were quantified at weeks 12 and 23 using the abovementioned UHPLC-DAD method (see Section 3.4).
The effects of the temperature and the medium (i.e., solvent and accompanying substances) were analysed through one-way analysis of variance (ANOVA) followed by Tukey’s post hoc HSD test (p < 0.05). To establish the kinetic parameters t1/2 and k, Equations (1) and (2) were applied, respectively.

[2] = system: A2058 (melanoma, derived from metastatic site: lymph node); assay: In vitro antiproliferative activity, Alamar Blue assay; type: cell-based; settings: Homo sapiens; A2058, 24 h treatment, then three days culture, n = 2; read-out: IC50 ± SD
Method: (§1) For the experiments, the following human cell lines were used: A2058 (melanoma, derived from metastatic site: lymph node), HepG2 (hepatocellular carcinoma), U87 (glioblastoma), HT-29 (colorectal carcinoma) and HL-60 (acute promyelocytic leukaemia). Cell lines were generous gifts from Dr. […] (Department of Experimental Pharmacology, National Institute of Oncology, Budapest, Hungary). […] The cultures were maintained at 37 °C in a humidified atmosphere with 5% CO2. The cells were grown to confluency and then divided into 96-well tissue culture plates (Sarstedt, Nümbrecht, Germany) with an initial cell number of 5000 cells/well. Cells were incubated at 37 °C in a 5% CO2 humidified atmosphere overnight. Before the assay, 50 μL of the supernatant was removed and replaced with a 50 μL serum-free medium (SFM). […] The cells were treated for 24 h with the compounds and negative control cells (no compound control) were treated with SFM only (incubated at 37 °C). […] The percentage of cytostasis was calculated with the following equation: […] Data were evaluated with Excel (version: 365; Microsoft, Redmond, WA, USA) and the curves were defined using Microcal OriginPro (version: 2018; OriginLab, Northampton, MA, USA) software. In each case, two independent experiments were carried out with four parallel measurements and the mean IC50 values together with ±SD were represented. The Excel (version: 365) (Microsoft, Redmond, WA, USA) and Microcal OriginPro (version: 2018) (OriginLab, Northampton, MA, USA) softwares were used for data evaluation.

[3] = system: HL-60 (acute promyelocytic leukaemia); assay: as above; type: cell-based; settings: Homo sapiens; HL-60, 24 h treatment, then three days culture, n = 2; read-out: IC50 ± SD
Method: as §1

[4] = system: HT-29 (colorectal carcinoma); assay: as above; type: cell-based; settings: Homo sapiens; HT-29, 24 h treatment, then three days culture, n = 2; read-out: IC50 ± SD
Method: as §1

[5] = system: HepG2 (hepatocellular carcinoma); assay: as above; type: cell-based; settings: Homo sapiens; HepG2, 24 h treatment, then three days culture, n = 2; read-out: IC50 ± SD
Method: as §1

[6] = system: U87 (glioblastoma); assay: as above; type: cell-based; settings: Homo sapiens; U87, 24 h treatment, then three days culture, n = 2; read-out: IC50 ± SD
Method: as §1

concentration as compared to the initial value ([1]; 12 weeks, 5 °C, EE (ethyl acetate extract of bark)): 102.0 ± 1.7%
concentration as compared to the initial value ([1]; 12 weeks, 5 °C, EM (methanol extract of bark)): 105.5 ± 2.5%
concentration as compared to the initial value ([1]; 12 weeks, 5 °C, SA (aqueous solution)): 100.5 ± 0.7 ^ab %
concentration as compared to the initial value ([1]; 12 weeks, 5 °C, SM (methanol solution)): 100.1 ± 0.6 ^ab %
concentration as compared to the initial value ([1]; 12 weeks, 22 °C, EE (ethyl acetate extract of bark)): 106.3 ± 2.6 %
concentration as compared to the initial value ([1]; 12 weeks, 22 °C, EM (methanol extract of bark)): 120.9 ± 2.6 %
concentration as compared to the initial value ([1]; 12 weeks, 22 °C, SA (aqueous solution)): 100.8 ± 1.1 ^a %
concentration as compared to the initial value ([1]; 12 weeks, 22 °C, SM (methanol solution)): 100.1 ± 0.5 ^ab %
concentration as compared to the initial value ([1]; 12 weeks, −15 °C, EE (ethyl acetate extract of bark)): 103.5 ± 0.8%
concentration as compared to the initial value ([1]; 12 weeks, −15 °C, EM (methanol extract of bark)): 102.8 ± 3.3 %
concentration as compared to the initial value ([1]; 12 weeks, −15 °C, SA (aqueous solution)): 98.6 ± 1.3 ^b %
concentration as compared to the initial value ([1]; 12 weeks, −15 °C, SM (methanol solution)): 99.1 ± 0.7 ^ab %
concentration as compared to the initial value ([1]; 23 weeks, 5 °C, EE (ethyl acetate extract of bark)): 107.8 ± 2.6 %
concentration as compared to the initial value ([1]; 23 weeks, 5 °C, EM (methanol extract of bark)): 107.0 ± 4.1%
concentration as compared to the initial value ([1]; 23 weeks, 5 °C, SA (aqueous solution)): 100.0 ± 0.5 ^ab %
concentration as compared to the initial value ([1]; 23 weeks, 5 °C, SM (methanol solution)): 100.3 ± 0.5 ^ab %
concentration as compared to the initial value ([1]; 23 weeks, 22 °C, EE (ethyl acetate extract of bark)): 108.5 ± 2.7 %
concentration as compared to the initial value ([1]; 23 weeks, 22 °C, EM (methanol extract of bark)): 135.7 ± 9.7 %
concentration as compared to the initial value ([1]; 23 weeks, 22 °C, SA (aqueous solution)): 100.3 ± 0.6 ^ab %
concentration as compared to the initial value ([1]; 23 weeks, 22 °C, SM (methanol solution)): 100.2 ± 0.5 ^ab %
concentration as compared to the initial value ([1]; 23 weeks, −15 °C, EE (ethyl acetate extract of bark)): 108.0 ± 2.2 %
concentration as compared to the initial value ([1]; 23 weeks, −15 °C, EM (methanol extract of bark)): 103.6 ± 3.5%
concentration as compared to the initial value ([1]; 23 weeks, −15 °C, SA (aqueous solution)): 99.9 ± 1.2 ^ab %
concentration as compared to the initial value ([1]; 23 weeks, −15 °C, SM (methanol solution)): 99.8 ± 1.2 ^ab %
storage stability in methanol and aqueous solutions (in words) ([1]; SM and SA, −15, 5, 22 °C, weeks 12 and 23): stable; also recorded: good stability
IC50 [2]: > 100 µM
IC50 [3]: > 100 µM
IC50 [4]: > 100 µM
IC50 [5]: > 100 µM
IC50 [6]: > 100 µM
SMILES: O=C1CCC(=O)C(O)Cc2ccc(O)c(c2)-c2cc(ccc2O)C1 (stereo not drawn) [Compound 4, 3,12,17-trihydroxytricyclo [12.3.1.1^2,6]nonadeca-1(18),2(19),3,5,14,16-hexaene-8,11-dione]
